Experimental data reported in patent publication US20150105252A1, “SUBSTITUTED PYRAZOLES AS HERBICIDES” (E I DU PONT DE NEMOURS AND COMPANY, priority 2013, published 2015).

Tests used:
kochia = test: Test E preemergence; type: in vivo, Kochia scoparia; details: 21 days, scale 0 to 100
From the text: (§1) Seeds of plant species selected from bermudagrass (Cynodon dactylon), Surinam grass (Brachiaria decumbens), crabgrass, large (large crabgrass, Digitaria sanguinalis), crabgrass, naked (naked crabgrass, Digitaria nuda), foxtail, green (green foxtail, Setaria viridis), johnsongrass (Sorghum halepense), kochia (Kochia scoparia), morningglory (pitted morningglory, Ipomoea lacunosa), nutsedge, purple (purple nutsedge, Cyperus rotundus), ragweed (common ragweed, Ambrosia elation), mustard, black (black mustard, Brassica nigra), guineagrass (Panicum maximum), dallisgrass (Paspalum dilatatum), barnyardgrass (Echinochloa crus-galli), sandbur (southern sandbur, Cenchrus echinatus), sowthistle (common sowthistle, Sonchus oleraceous), ryegrass, Italian (Italian ryegrass, Lolium multiflorum), signalgrass (broadleaf signalgrass, Brachiaria platyphylla), dayflower, VA (Virginia (VA) dayflower, Commelina virginica), bluegrass (annual bluegrass, Poa annua), quackgrass (Elytrigia repens), mallow (common mallow, Malva sylvestris), buckwheat, wild (wild buckwheat, Polygonum convolvulus), leafy spurge (Euphorbia esula), common chickweed (Stellaria media), wild poinsettia (Euphorbia heterophylla), pigweed, palmer (palmer pigweed, Amaranthus palmeri), and pigweed (redroot pigweed, Amaranthus retroflexus) were planted into a blend of loam soil and sand and treated preemergence with test chemicals formulated in a non-phytotoxic solvent mixture which included a surfactant.
(§2) Treated plants and controls were maintained in a greenhouse for 21 days, after which time all species were compared to controls and visually evaluated. Plant response ratings, summarized in Table E, are based on a scale of 0 to 100 where 0 is no effect and 100 is complete control. A dash (-) response means no test result.

wild poinsettia = test: Test F postemergence; type: in vivo, Euphorbia heterophylla; details: scale 0 to 100
From the text: (§3) Seeds of plant species selected from corn (Zea mays), soybean (Glycine max), velvetleaf (Abutilon theophrasti), lambsquarters (Chenopodium album), wild poinsettia (Euphorbia heterophylla), pigweed, palmer (palmer pigweed, Amaranthus palmeri), common waterhemp (Amaranthus rudis), surinam grass (Brachiaria decumbens), large crabgrass (Digitaria sanguinalis), crabgrass, Brazil (Brazilian crabgrass, Digitaria horizontalis), fall panicum (Panicum dichotomiflorum), giant foxtail (Setaria faberii), green foxtail (Setaria viridis), goosegrass (Eleusine indica), johnsongrass (Sorghum halepense), common ragweed (Ambrosia elation), barnyardgrass (Echinochloa crus-galli), southern sandbur (Cenchrus echinatus), arrowleaf sida (Sida rhombifolia), Italian ryegrass (Lolium multiflorum), dayflower, VA (Virginia (VA) dayflower, Commelina virginica), field bindweed (Convolvulus arvensis), cocklebur (common cocklebur, Xanthium strumarium), morningglory (Ipomoea coccinea), nightshade (eastern black nightshade, Solanum ptycanthum), kochia (Kochia scoparia), yellow nutsedge (Cyperus esculentus), and hairy beggarticks (Bidens pilosa), were planted into a silt loam soil and treated preemergence with test chemicals formulated in a non-phytotoxic solvent mixture which included a surfactant.
(§4) At the same time, plants from these crop and weed species and also horseweed (Canada horseweed, Conyza canadensis), smartweed (ladysthumb smartweed, Polygonum persicaria), waterhemp_RES1, (ALS & Triazine resistant common waterhemp, Amaranthus rudis), and waterhemp_RES2, (ALS & HPPD resistant common waterhemp, Amaranthus rudis) were treated with postemergence applications of test chemicals formulated in the same manner. Plants ranged in height from 2 to 18 cm for postemergence treatments (1- to 4-leaf stage). Treated plants and controls were maintained in a greenhouse for 14 to 21 days, after which time all species were compared to controls and visually evaluated. Plant response ratings, summarized in Table F, are based on a scale of 0 to 100 where 0 is no effect and 100 is complete control. A dash (-) response means no test result.

hairy beggarticks = test: Test F postemergence; type: in vivo, Bidens pilosa; details: scale 0 to 100
From the text: as §3, §4

crabgrass, large = test: Test E preemergence; type: in vivo, Digitaria sanguinalis; details: 21 days, scale 0 to 100
From the text: as §1, §2

signalgrass = test: Test E preemergence; type: in vivo, Brachiaria platyphylla; details: 21 days, scale 0 to 100
From the text: as §1, §2

ragweed = test: Test E preemergence; type: in vivo, Ambrosia elation; details: 21 days, scale 0 to 100
From the text: as §1, §2

rice = test: Test C flooded paddy test; type: in vivo, Oryza sativa; details: Flood
Outline: (§5)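 Visual injury ratings against untreated controls, taken 13 to 15 days after compound was added to paddy water standing 3 cm above the soil.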

sedge, umbrella = test: Test C flooded paddy test; type: in vivo, Cyperus difformis; details: Flood
Outline: as §5

[1] = 31 g ai/ha, scale 0 to 100 (0 no effect, 100 complete control)
[2] = 62 g ai/ha, scale 0 to 100 (0 no effect, 100 complete control)
[3] = 125 g ai/ha, scale 0 to 100 (0 no effect, 100 complete control)

| SMILES | Plant response rating, Kochia (kochia; 16 g ai/ha) | Plant response rating, Kochia (kochia; 31 g ai/ha) | Plant response rating, Kochia (kochia; 62 g ai/ha) | Plant response rating, Kochia (kochia; 125 g ai/ha) | Plant response rating, Kochia (kochia; 250 g ai/ha) | Plant response rating, Wild Poinsettia (wild poinsettia; Postemergence, 31 g ai/ha) | Plant response rating, Wild Poinsettia (wild poinsettia; Postemergence, 125 g ai/ha) | Plant response rating, Crabgrass, Large (crabgrass, large; 16 g ai/ha) | Plant response rating, Crabgrass, Large (crabgrass, large; 31 g ai/ha) | Plant response rating, Crabgrass, Large (crabgrass, large; 62 g ai/ha) | Plant response rating, Signalgrass (signalgrass; 16 g ai/ha) | Plant response rating, Signalgrass (signalgrass; 31 g ai/ha) | Plant response rating, Signalgrass (signalgrass; 62 g ai/ha) | Plant response rating, Ragweed (ragweed; 16 g ai/ha) | Plant response rating, Ragweed (ragweed; 31 g ai/ha) | Plant response rating, Ragweed (ragweed; 62 g ai/ha) | Plant response rating, Rice (rice; [1]) | Plant response rating, Rice (rice; [2]) | Plant response rating, Sedge, Umbrella (sedge, umbrella; [1]) | Plant response rating, Sedge, Umbrella (sedge, umbrella; [2]) | other results |
| --- | --- | --- | --- | --- | --- | --- | --- | --- | --- | --- | --- | --- | --- | --- | --- | --- | --- | --- | --- | --- | --- |
| CCc1cc(C(=O)NCC(F)(F)F)nn1Cc1ccnc(C(F)(F)F)c1 [Compound 78, 5-ethyl-N-(2,2,2-trifluoroethyl)-1-[[(2-trifluoromethyl)-4-pyridinyl]methyl]-1H-pyrazole-3-carboxamide] | 100 | 100 | 100 | 100 | 100 | 25 | 70 | 90 | 100 | 100 | 70 | 100 | 100 | 75 | 100 | 100 |  |  |  |  | Plant response rating, Wild Poinsettia (wild poinsettia; Postemergence, 250 g ai/ha): 80; Plant response rating, Wild Poinsettia (wild poinsettia; postemergence, 62 g ai/ha): 50; Plant response rating, Wild Poinsettia (wild poinsettia; postemergence, 500 g ai/ha): 90; Plant response rating, Hairy Beggarticks (hairy beggarticks; Postemergence, 31 g ai/ha): 30; Plant response rating, Hairy Beggarticks (hairy beggarticks; Postemergence, 125 g ai/ha): 50; Plant response rating, Hairy Beggarticks (hairy beggarticks; Postemergence, 250 g ai/ha): 75; Plant response rating, Hairy Beggarticks (hairy beggarticks; postemergence, 62 g ai/ha): 40; Plant response rating, Hairy Beggarticks (hairy beggarticks; postemergence, 500 g ai/ha): 90; Plant response rating, Crabgrass, Large (crabgrass, large; 125 g ai/ha): 100; Plant response rating, Crabgrass, Large (crabgrass, large; 250 g ai/ha): 100; Plant response rating, Signalgrass (signalgrass; 125 g ai/ha): 100; Plant response rating, Signalgrass (signalgrass; 250 g ai/ha): 100; Plant response rating, Ragweed (ragweed; 125 g ai/ha): 100; Plant response rating, Ragweed (ragweed; 250 g ai/ha): 100 |
| CCc1cc(C(=O)NC(C)C)nn1Cc1ccnc(C(F)(F)F)c1 [Compound 103] | 95 | 100 | 100 | 100 | 100 |  |  | 100 | 100 | 100 | 65 | 80 | 100 | 5 | 98 | 100 |  |  |  |  | Plant response rating, Crabgrass, Large (crabgrass, large; 125 g ai/ha): 100; Plant response rating, Crabgrass, Large (crabgrass, large; 250 g ai/ha): 100; Plant response rating, Signalgrass (signalgrass; 125 g ai/ha): 100; Plant response rating, Signalgrass (signalgrass; 250 g ai/ha): 100; Plant response rating, Ragweed (ragweed; 125 g ai/ha): 100; Plant response rating, Ragweed (ragweed; 250 g ai/ha): 100 |
| CCOc1cc(C(=O)NCC(F)(F)F)nn1Cc1ccnc(C(F)(F)F)c1 [Compound 104] | 100 | 100 | 100 | 100 | 100 | 45 | 95 | 100 | 100 | 100 | 35 | 75 | 100 | 100 | 100 | 100 |  |  |  |  | Plant response rating, Wild Poinsettia (wild poinsettia; Postemergence, 250 g ai/ha): 90; Plant response rating, Wild Poinsettia (wild poinsettia; postemergence, 62 g ai/ha): 60; Plant response rating, Wild Poinsettia (wild poinsettia; postemergence, 500 g ai/ha): 100; Plant response rating, Hairy Beggarticks (hairy beggarticks; Postemergence, 31 g ai/ha): 50; Plant response rating, Hairy Beggarticks (hairy beggarticks; Postemergence, 125 g ai/ha): 60; Plant response rating, Hairy Beggarticks (hairy beggarticks; Postemergence, 250 g ai/ha): 85; Plant response rating, Hairy Beggarticks (hairy beggarticks; postemergence, 62 g ai/ha): 50; Plant response rating, Hairy Beggarticks (hairy beggarticks; postemergence, 500 g ai/ha): 90; Plant response rating, Crabgrass, Large (crabgrass, large; 125 g ai/ha): 100; Plant response rating, Crabgrass, Large (crabgrass, large; 250 g ai/ha): 100; Plant response rating, Signalgrass (signalgrass; 125 g ai/ha): 100; Plant response rating, Signalgrass (signalgrass; 250 g ai/ha): 100; Plant response rating, Ragweed (ragweed; 125 g ai/ha): 100; Plant response rating, Ragweed (ragweed; 250 g ai/ha): 100 |
| CCCNC(=O)c1cc(CCCl)n(Cc2ccnc(C(F)(F)F)c2)n1 [Compound 145] |  |  |  |  |  |  |  |  |  |  |  |  |  |  |  |  | 0 | 20 | 100 | 100 | Plant response rating, Rice (rice; 125 g ai/ha, scale 0 to 100): 25; Plant response rating, Rice (rice; 250 g ai/ha, scale 0 to 100): 40; Plant response rating, Sedge, Umbrella (sedge, umbrella; 125 g ai/ha, scale 0 to 100): 100; Plant response rating, Sedge, Umbrella (sedge, umbrella; 250 g ai/ha, scale 0 to 100): 100 |
| CCOc1cc(C(=O)NC(C)C)nn1Cc1ccnc(C(F)(F)F)c1 [Compound 188] |  |  |  |  |  | 60 | 60 |  |  |  |  |  |  |  |  |  |  |  |  |  | Plant response rating, Wild Poinsettia (wild poinsettia; Postemergence, 250 g ai/ha): 80; Plant response rating, Wild Poinsettia (wild poinsettia; postemergence, 62 g ai/ha): 70; Plant response rating, Wild Poinsettia (wild poinsettia; postemergence, 500 g ai/ha): 85; Plant response rating, Hairy Beggarticks (hairy beggarticks; Postemergence, 31 g ai/ha): 50; Plant response rating, Hairy Beggarticks (hairy beggarticks; Postemergence, 125 g ai/ha): 50; Plant response rating, Hairy Beggarticks (hairy beggarticks; Postemergence, 250 g ai/ha): 60; Plant response rating, Hairy Beggarticks (hairy beggarticks; postemergence, 62 g ai/ha): 60; Plant response rating, Hairy Beggarticks (hairy beggarticks; postemergence, 500 g ai/ha): 75 |
| CCOc1cc(C(=O)NC2CC2)nn1Cc1ccnc(C(F)(F)F)c1 [Compound 189] | 100 | 100 | 100 |  |  |  |  | 100 | 100 | 100 | 60 | 95 | 100 | 100 | 100 | 100 |  |  |  |  | Plant response rating, Kochia (kochia; 4 g ai/ha): 98; Plant response rating, Kochia (kochia; 8 g ai/ha): 100; Plant response rating, Crabgrass, Large (crabgrass, large; 4 g ai/ha): 0; Plant response rating, Crabgrass, Large (crabgrass, large; 8 g ai/ha): 95; Plant response rating, Signalgrass (signalgrass; 4 g ai/ha): 0; Plant response rating, Signalgrass (signalgrass; 8 g ai/ha): 30; Plant response rating, Ragweed (ragweed; 8 g ai/ha): 95 |
| CCONC(=O)c1cc(OCC)n(Cc2ccnc(C(F)(F)F)c2)n1 [Compound 195] |  |  |  |  |  |  |  |  |  |  |  |  |  |  |  |  | 0 | 0 | 0 | 75 | Plant response rating, Rice (rice; [3]): 0; Plant response rating, Rice (rice; 250 g ai/ha, scale 0 to 100): 20; Plant response rating, Sedge, Umbrella (sedge, umbrella; [3]): 80; Plant response rating, Sedge, Umbrella (sedge, umbrella; 250 g ai/ha, scale 0 to 100): 85 |
| CCc1cc(C(=O)NC2CC2)nn1Cc1ccnc(OCC(F)(F)F)c1 [Compound 200] |  |  |  |  |  |  |  |  |  |  |  |  |  |  |  |  | 0 | 0 | 50 | 80 | Plant response rating, Rice (rice; [3]): 15; Plant response rating, Rice (rice; 250 g ai/ha, scale 0 to 100): 20; Plant response rating, Sedge, Umbrella (sedge, umbrella; [3]): 100; Plant response rating, Sedge, Umbrella (sedge, umbrella; 250 g ai/ha, scale 0 to 100): 100 |
| CCc1cc(C(=O)NC2CC2)nn1Cc1cc(C(F)(F)C(F)(F)F)nn1C [Compound 226] |  |  |  |  |  |  |  |  |  |  |  |  |  |  |  |  | 0 | 0 | 20 | 25 | Plant response rating, Rice (rice; [3]): 0; Plant response rating, Sedge, Umbrella (sedge, umbrella; [3]): 85 |
